Experimental data as given in PubChem BioAssay AID1626 (SRMLSC, 2009).

System: M. tuberculosis H37Rv growth inhibition
Test: M. tuberculosis H37Rv growth inhibitors, H37Rv strain (AID 1626)
Settings: for IC90: measured here: IC90 against H37Rv; for CC50: measured here: Vero cell cytotoxicity

Structure (SMILES)	IC50 [µM]	IC90 [µM]	CC50 [µM]
O=c1[nH][nH]c(-c2ccccc2O)c1C(C[N+](=O)[O-])c1cccc(Cl)c1 (stereo unspecified)	7.89	13.9	26.7
O=C(Cc1ccc([N+](=O)[O-])cc1)Nc1cc(C(F)(F)F)cc(C(F)(F)F)c1	0.369	> 100	20.8
Cc1cc(Cl)n2c(nc3cc(F)c(F)cc32)c1C#N	3.98	10.5	2.29
O=C(Nc1cc(Oc2ccccc2)cc([N+](=O)[O-])c1)C12CC3CC(C1)CC(n1cnc(Cl)n1)(C3)C2	4.19	> 100	> 40
CCCn1c(NC(=O)c2cccc(C)c2C)nc2ccccc21	1	3.63	24.7
CN(c1ccccc1)c1nc(N2CCCC2)nc(-n2ccnc2)n1	3.05	3.54	> 40
CC(C)c1ccc2nc(N)sc2c1	43.3	> 100	> 40
O=C(c1cc2cc3ccc(Cl)cc3nc2o1)N1CCC2(CC1)OCCO2	3.56	7.22	
Cc1cccc(Cc2cnc(N3C(=N)SC(c4ccccc4)C3=O)s2)c1 (stereo unspecified)	8.81	> 100	36.8
Cn1c(O)c(C(=Nc2ccccc2)SCc2ccccc2Cl)c(=O)n(C)c1=O	2.23	2.76	22.7
Cc1ccc(NC(=O)c2ccc([N+](=O)[O-])o2)c(C)c1	6.59	11.2	13.4
Cc1cccc(NC(=O)c2nc[nH]c2C(=O)N[C@@H](CC(C)C)C(=O)OCc2ccccc2)c1	23	> 100	39.1
CCOC(=O)c1ccc(-n2c(CCC(=O)O)ccc2-c2cccs2)cc1		> 100	
CCOC(=O)COc1ccc(S(=O)(=O)NCCC2=CCCCC2)cc1	12.1	20.8	
O=C(c1ccccc1)c1c2c(cc3sc4ccccc4[n+]13)-c1cccc3cccc-2c13	2.81	5.22	23.1
Cc1cc(C)nc(/N=C(\N)Nc2ccc(-c3ccccc3)cc2)n1	2.74	11	> 40
CCCCc1nc2sc3c(SCCN(C)C)ncnc3c2c2c1CCC2	12.8	25.4	> 40
CCOC(=O)COc1cc(OCC(=O)OCC)c2c(=O)cc(-c3ccccc3)oc2c1	1.37	3.74	
CCOc1ccc(N=Cc2c(O)n(C(C)(C)C)c(=O)[nH]c2=O)cc1	< 0.195	> 100	
CC(=O)Nc1nc2ccccc2n1Cc1ccccc1	2.74	3.59	> 40
Cc1cc(C(=O)CCl)c(C)n1Cc1ccco1	3.34	8.28	12.1
Nc1nc(CCOc2ccc(F)cc2)cs1	22.4	> 100	
O=c1cc(N=Nc2ccc(Cl)cc2)[nH]c(=O)[nH]1	13	14.5	7.51
COc1ccc(C(=O)CSc2nc(-c3ccccn3)nc(C)c2Cl)cc1	6.11	6.84	> 40
CCC(C)c1ccccc1NC(=O)CN1CCN(C/C=C/c2ccccc2)CC1 (stereo unspecified)	21.9	35.1	
O=C(NC1=NCCS1)c1ccc(-c2ccc(Cl)cc2)o1	28.4	> 100	
COCCCN=C1NN=C(c2cc(C)n(-c3ccccc3F)c2C)CS1	5.21	7.08	21.7

Structure (SMILES)	IC50 [µM]	IC90 [µM]	CC50 [µM]
FC(F)(F)c1ccc(N2CCOCC2)c(Nc2nc3ccccc3n3cnnc23)c1	8.57	18.3	24.5
CC(C)[C@H](NC(=O)c1ccccc1Cl)C(=O)Nc1nc(-c2ccccn2)cs1	7.72	> 100	9.39
CCOc1ccc(N2C(=O)/C(=C\c3ccc(OC)c(O)c3)S(=O)(=O)C2c2cccc([N+](=O)[O-])c2)cc1 (stereo unspecified)		> 100	
Nc1nc(N)c2cc(Sc3ccc4ccccc4c3)ccc2n1	1.61	3.16	1.01
Cc1ccc(NC(=O)c2ccc([N+](=O)[O-])o2)cc1C	< 0.195	8.63	> 40
COc1ccc(OCc2n(CC(=O)OC3CC(C)CCC3C(C)C)c3ccccc3[n+]2C)cc1 (stereo unspecified)	3.34	5.49	26.4
O=C(Nc1ncc(Cc2ccccc2)s1)c1cccs1	49	> 100	> 40
N#Cc1ccc(/C=C/C(=O)c2ccccc2)cc1	5.89	7.86	> 40
Cc1c(Cl)c([N+](=O)[O-])nn1CCCC(=O)Nc1cc(Oc2ccccc2)cc([N+](=O)[O-])c1	6.86	10.5	28.7
CN1CCN(C2=Cc3ccccc3Sc3cc(F)c(Cl)cc32)CC1	11.6	13.2	36.4
COc1ccc(NCC(=O)Nc2ccc(C#N)cc2)cc1Cl	8.28	> 100	> 40
O=C(Nc1nc(-c2ccccn2)cs1)C12CC3CC(CC(O)(C3)C1)C2	3.6	7.8	> 40
C(=C\c1nc(N2CCCC2)c2ccccc2n1)/c1ccccc1	5.33	7.91	> 40
O=C1OC(/C(=C\Nc2cc(Cl)ccc2O)[N+](=O)[O-])c2ccccc21 (stereo unspecified)	57.2	> 100	> 40
CC(=O)n1cc(N(C(=O)CCl)c2ccc([N+](=O)[O-])cc2)c2ccccc21	14	30.3	14.7
CCOc1ccc(NC(=O)NC23CC4CC(CC(C4)C2)C3)cc1	2.58	> 100	
COC(=O)CSc1nc2c(c(-c3ccc(C)o3)c1C#N)CCCC2	2.66	3.47	
Cc1cc(NC(=O)C2CCCC2)n(-c2nc3ccccc3[nH]2)n1	24.6	> 100	
O=C(Nc1nnc(-c2cccs2)o1)c1cccc(Oc2ccccc2)c1	< 0.195	2.67	34
O=C1N(c2ccc3c(c2)OCCO3)C(c2ccccc2)C1(F)F (stereo unspecified)	2.57	7.34	
COc1ccc(-c2cc3nc(C)c(CCC(=O)NCc4ccc(F)cc4)c(C)n3n2)c(OC)c1			> 40
O=C(NCCCN1CCOCC1)c1ccc([N+](=O)[O-])cc1[N+](=O)[O-]	6.25	> 100	
Nc1ccc(N=Nc2ccccc2)cc1		> 100	
O=C(Nc1nnc(-c2ccccc2)o1)c1nc2ccccc2s1	6.13	13.6	> 40
CCCOC(=O)c1ccc(NC(=O)CCC(=O)OCC)cc1	< 0.195	> 100	
Cn1c2c(c(=O)n(C)c1=O)C(C(F)(F)F)(C(F)(F)F)N=C(c1ccc(Cl)cc1)N2	4.92	6.68	2.61
COc1cccc2c1C(=O)c1c(O)c3c(c(O)c1C2=O)C[C@@](O)(C(=O)CO)C[C@@H]3O[C@H]1C[C@H](N)[C@H](O)[C@H](C)O1	13	> 100	7.25

Structure (SMILES)	IC50 [µM]	IC90 [µM]	CC50 [µM]
CCOC(=O)c1ccc(NC(=O)CSc2nnc(COc3ccccc3OC)n2C)cc1		> 100	
N#C/C(=C/c1ccc(-c2ccc(Br)cc2)o1)C(=O)NC1CCCCC1		> 100	> 40
O=C(OCC(=O)N1CCc2ccccc21)c1ccc(Cl)nc1	14.2	> 100	
Cc1ccc(Sc2ccc(C=C3C(=O)N(C)C(=O)N(C)C3=O)o2)cc1	7.56	20.8	
Nc1ccc(-c2cc(-c3cccc(N)c3)nc(-c3ccccc3)n2)cc1			> 40
CC/C(=C(\c1ccc(O)cc1)c1ccc(OCCN(C)C)cc1)c1ccccc1	8.76	12.3	14.1
CCc1nnc(NC(=O)c2cc3ccccc3oc2=O)s1	< 0.195	4.5	
COc1ccc(CCNc2cc(C)nc3c(-c4ccc(Cl)cc4)c(C)nn23)cc1OC	1	5.53	> 40
CC(C)Nc1cc(C(F)(F)F)nc(-c2ccccn2)n1	5.17	> 100	
c1ccc2c(-c3nc(C4CCCCC4)no3)cc(-c3ccncc3)nc2c1	7	10.9	> 40
Cc1ccc(NC(=O)CCn2cnc3ccccc3c2=O)cc1Cl		> 100	
c1csc(Cc2nn3c(-c4n[nH]c5c4CCC5)nnc3s2)c1	0.412	11	> 40
COc1ccc(CNC(=O)c2sc3nc4c(c(C(F)(F)F)c3c2N)CCC4)cc1OC	12	18.3	
CCOc1ccc(N=Cc2c(O)n(-c3cc(C)cc(C)c3)c(=O)[nH]c2=O)cc1	< 0.195	> 100	
O=C(OCC#CCSc1nc2ccccc2o1)c1cc2ccccc2o1	5.72	12.7	> 40
Cc1ccc(NC(=O)NCC2CCN(Cc3cccc(Cl)c3)CC2)cc1Cl	11.6	31.2	29.4
O=[N+]([O-])c1ncccc1Oc1nc(-c2cccnc2)nc2ccccc12	7.07	> 100	
Cc1cccc(CN2CCCC(C(=O)c3cccc(OC(C)C)c3)C2)n1 (stereo unspecified)	12.3	> 100	> 40
COc1ccc(N=Cc2cc(Cl)ccc2O)cc1Cl	7.49	> 100	
CCc1ccc(Nc2nnc(SCC(=O)Nc3cccnc3Cl)s2)cc1	5.02	13.6	
CC(=O)c1ccccc1OCC(O)CN1CCN(C(c2ccccc2)c2ccccc2)CC1 (stereo unspecified)	7.75	32.6	33.1
CCCCCCCCC/C(=N\O)c1ccccn1	1.55	1.68	13.2
COc1ccc(NC(=O)COC(=O)CCCOc2ccc(Cl)cc2Cl)cc1Cl	80.6	> 100	
Oc1ccccc1N=Cc1ccc[nH]1	3.04	6.39	> 40
COC(=O)CSc1ccc(-c2nc3ccc(C)cc3[nH]2)cn1	1.95	3.39	
Cc1ccc(Cn2ccc(=O)c(OCc3c(Cl)cccc3Cl)c2C)cc1	8.57	11.8	> 40
